A short description of series [1]: Pharmacokinetic study in male ICR mice (IP and IV). Format: in vivo, mouse. How it is done: TIPTP at a dose of 0.5 mg/kg and 1 mg/kg was administered intravenously and intraperitoneally to male ICR mice. Blood samples were collected via the carotid artery at 0 (to serve as a control), 0.03, 0.16, 0.25, 0.5, 1, 2, 4, 6, and 24 h after administration of the compound. After centrifugation at 3000 rpm for 10 min, a 13.5 µL aliquot of plasma samples were stored at -20 C until analysis. Pharmacokinetic parameters were determined by a noncompartmental analysis using WinNonlin® (Pharsight Corporation, Mountain View, CA) program. The total area under the plasma concentration-time curve from time zero to the last measured time (AUClast) was calculated by the trapezoidal rule[…] method. Standard methods in the literature (M. Gibaldi, D. Perrier, Pharmacokinetics, second ed., Marcel-Dekker, New York, 1982.) were used to calculate the following pharmacokinetic parameters; the time averaged total body clearance (CL), total area under the first moment of plasma concentration-time curve from time zero to time infinity (AUC0-∞), terminal half-life, mean residence time (MRT), apparent volume of distribution at steady state (Vss). Concentrations of the compound in the above samples were analyzed using LC-MS/MS. To a 13.5 µL aliquot of plasma sample, a 60 µL aliquot of acetonitrile containing 1 µg/mL of internal standard (carbamazepine) was added. After vortex mixing and centrifugation at 6,000 rpm for 15 min, a […] of supernatant was added to 100μL distilled water and injected into LCMS/MS system. The LC-MS/MS system consisted of Agilent 1200 series HPLC system (Agilent, Santa Clara, CA) and API3200® triple-quadrupole mass spectrometer (Applied Biosystems-SCIEX, Concord, Canada). The HPLC mobile phases consisted of 0.1% formic acid in water (A) and acetonitrile (B). Chromatographic separation was achieved on a reversed-phase Atlantis T3 column (100 x 2.1 mm, 3 µm, Waters Corporation, Milford, MA) using gradient elution at a flow rate of 0.25 mL/min. The lower limit of quantitation of the compound in mice plasma was 9.7 ng/mL. The values of coefficients of correlation (R) were more than 0.997.

Series [2] addresses T1, CYP2D6 (Homo sapiens, UniProt P10635).
T1 construct: To human liver microsomes (0.25 mg/mL); from tissue; host or cells: human liver microsomes
Nature of the series: CYP450 inhibition assay in human liver microsomes. It is filed as in vitro ADME. How it is done:
(§1) All of CYP inhibition, microsomal stability and plasma stability experiments were performed by New Drug Development Center, the Daegu-Gyeongbuk Medical Innovation Foundation (DGMIF), South Korea. To human liver microsomes (0.25 mg/mL), 0.1 M phosphate buffer (pH 7.4), a cocktail of five probe substrates (Phenacetin 50 μM, Diclofenac 10 μM, S-mephenytoin 100 μM, Dextromethorphan 5 μM, and Midazolam 2.5 μM), and tested compounds were added at concentrations of 0 μM (as a control) and 10 μM. After incubation at 37 °C for 5 min, NADPH generation system solution was also added and incubated at 37 °C for 15 min again. To terminate the reaction, acetonitrile including internal standard (Terfenadine) was added, and the solution was centrifuged for 5 min (14 000 rpm, 4 °C). The supernatant was then injected into the LC-MS/MS system to simultaneously analyze the metabolites of the probe substrates and evaluate the % CYP inhibition of the tested compound.

The target of series [3] is T2, CYP1A2 (Homo sapiens, UniProt P05177).
T2 construct: To human liver microsomes (0.25 mg/mL); from tissue; host or cells: human liver microsomes
T2 sequence (P05177 1-516): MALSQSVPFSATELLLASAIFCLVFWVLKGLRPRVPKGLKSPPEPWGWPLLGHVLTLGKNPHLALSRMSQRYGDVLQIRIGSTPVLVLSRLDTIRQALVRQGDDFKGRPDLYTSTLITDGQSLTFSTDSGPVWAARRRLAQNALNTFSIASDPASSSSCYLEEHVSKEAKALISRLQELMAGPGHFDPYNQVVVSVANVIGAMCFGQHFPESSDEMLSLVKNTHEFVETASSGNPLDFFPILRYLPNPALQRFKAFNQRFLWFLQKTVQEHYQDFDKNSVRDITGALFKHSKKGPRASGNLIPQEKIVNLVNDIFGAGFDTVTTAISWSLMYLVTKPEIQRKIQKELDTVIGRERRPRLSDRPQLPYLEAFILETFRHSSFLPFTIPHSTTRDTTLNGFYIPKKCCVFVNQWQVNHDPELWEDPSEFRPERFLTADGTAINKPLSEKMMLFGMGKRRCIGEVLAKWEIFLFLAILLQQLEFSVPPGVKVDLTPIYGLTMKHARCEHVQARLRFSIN
Nature of the series: CYP450 inhibition assay in human liver microsomes. Format: in vitro ADME. How it is done: as §1

Series [4] deals with T3, CYP3A4 (Homo sapiens, UniProt P08684).
T3 construct: To human liver microsomes (0.25 mg/mL); from tissue; host or cells: human liver microsomes
T3 sequence (P08684 whole entry): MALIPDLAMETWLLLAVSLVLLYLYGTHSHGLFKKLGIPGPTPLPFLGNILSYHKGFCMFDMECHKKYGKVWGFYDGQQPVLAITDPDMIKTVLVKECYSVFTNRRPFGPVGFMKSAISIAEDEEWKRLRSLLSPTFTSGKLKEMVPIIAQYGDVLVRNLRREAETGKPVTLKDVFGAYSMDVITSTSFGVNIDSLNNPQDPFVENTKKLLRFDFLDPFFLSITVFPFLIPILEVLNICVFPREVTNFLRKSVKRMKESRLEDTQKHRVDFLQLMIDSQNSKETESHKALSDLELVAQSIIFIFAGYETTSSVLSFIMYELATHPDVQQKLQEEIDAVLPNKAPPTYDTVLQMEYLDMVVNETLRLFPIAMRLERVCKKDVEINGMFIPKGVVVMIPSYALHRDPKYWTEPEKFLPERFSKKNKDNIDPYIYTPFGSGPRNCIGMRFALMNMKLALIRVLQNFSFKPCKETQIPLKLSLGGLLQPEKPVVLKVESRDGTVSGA
The experiment in a line: CYP450 inhibition assay in human liver microsomes. It is filed as in vitro ADME. The procedure:
as §1
A general note: Liver microsomes are vesicles of endoplasmic reticulum, rich in cytochrome P450 enzymes.

Setting [5] is: IP, 1 mg/kg, male ICR mouse plasma.
The mark [6] stands for this setting: IV, 0.5 mg/kg, male ICR mouse plasma.

T1 sequence (P10635 whole entry): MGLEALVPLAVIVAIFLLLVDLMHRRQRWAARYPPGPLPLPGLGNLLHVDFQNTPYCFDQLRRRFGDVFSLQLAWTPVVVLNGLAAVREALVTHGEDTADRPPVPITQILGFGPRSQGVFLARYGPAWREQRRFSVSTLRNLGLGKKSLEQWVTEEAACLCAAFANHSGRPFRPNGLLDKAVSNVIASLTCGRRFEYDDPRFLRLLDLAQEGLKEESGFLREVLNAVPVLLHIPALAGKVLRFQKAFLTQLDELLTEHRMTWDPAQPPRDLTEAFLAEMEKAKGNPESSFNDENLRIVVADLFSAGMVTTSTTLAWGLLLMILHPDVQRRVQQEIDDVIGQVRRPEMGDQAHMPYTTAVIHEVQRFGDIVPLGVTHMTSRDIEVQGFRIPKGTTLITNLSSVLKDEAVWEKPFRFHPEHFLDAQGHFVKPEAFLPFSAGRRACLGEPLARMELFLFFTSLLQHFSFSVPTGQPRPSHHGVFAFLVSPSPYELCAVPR

In general, AUC(0-inf) refers to the area under the concentration-time curve extrapolated to infinity. High values mean more exposure, low ones less exposure. In general, Cmax refers to the peak of the concentration-time curve. Broadly, the MRT inf is a mean duration of stay, worked out from the concentration-time curve. Broadly, the Tmax is the time at which the peak concentration occurs. As usually defined, the half-life is the time needed for the level to fall by half in the phase considered. High values mean slow loss, low ones fast loss. Broadly, the AUC(0-t) is exposure summed from dosing to a finite time, without extrapolation to infinity. Read a high AUC(0-t) as more exposure. Turning to `C[C@@H](Oc1cccc(-n2cc3c(n2)CCCC3)c1)C(=O)Nc1nnc(C(F)(F)F)s1` [TIPTP, (R)-2-(3-(4,5,6,7-tetrahydro-2H-indazol-2-yl)phenoxy)-N-(5-(trifluoromethyl)-1,3,4-thiadiazol-2-yl)propanamide], in series [1] (setting [5]), the AUC(0-inf) turned out to be 15100 ± 3410 ng·h/mL, the Cmax was 5590 ± 1430 ng/mL, the MRT inf was 3.42 ± 0.43 h and the Tmax turned out to be 0.23 ± 0.04 h. In series [1] (setting [5]), this compound gave a half-life of 2.91 ± 0.14 h. In series [1] (IP, 1 mg/kg, male ICR mouse plasma, n = 5, mean ± SD), this compound showed an AUC(0-t) of 15100 ± 3410 ng·h/mL. In series [1] (setting [6]), this compound had an AUC(0-inf) of 10000 ± 451 ng·h/mL, an MRT inf of 2.57 ± 0.52 h and a half-life of 3.67 ± 0.39 h. The same compound yielded an AUC(0-t) in series [1] (IV, 0.5 mg/kg, male ICR mouse plasma, n = 3, mean ± SD) of 9980 ± 446 ng·h/mL. In addition, in series [1] (plasma, IV, 0.5 mg/kg, male ICR mouse), the clearance is 0.832 mL/min/kg. Besides, the Vd in series [1] (plasma, IV, 0.5 mg/kg, male ICR mouse, read-out: Vss) is 0.128 ± 0.0246 L/kg. For the same compound, in series [2] (10 μM), the “CYP (% of control activity @ 10 μM) 2D6” value worked out at 98.2%. For the same compound, the “effect on the CYP2D6 isozyme” value in series [2] (in words) was “negligible”. Further, the “CYP (% of control activity @ 10 μM) 1A2” value in series [3] is on record as 45.7%. Moreover, in series [4], the “CYP (% of control activity @ 10 μM) 3A4” value came out at 76.6%.

Values taken from article PMC7067850, “Identification of highly potent and selective inhibitor, TIPTP, of the p22phox-Rubicon axis as a therapeutic agent for rheumatoid arthritis” (Scientific Reports, 2020).
